Test results reported in PMC6127852 (Journal of Enzyme Inhibition and Medicinal Chemistry, 2018).
In brackets after ≈: the same amount, converted by molar mass.

Tests used:
calf thymus ctDNA = test: UV–Vis titration with ctDNA (Scatchard); assay type: binding; conditions: PBS, pH 7; for Hypochromic effect H/%, ctDNA: UV–Vis titration, calculated by Scatchard equation; for log Ks, ctDNA: binding constant, Scatchard
Procedure: (§1) Polynucleotides were purchased as follows: polyG–polyC, polyA–polyU (Sigma-Aldrich, St. Louis, MO), calf thymus ctDNA (Aldrich). Polynucleotides were dissolved in PBS buffer, I = 0.05 mol dm^−3, pH 7.0. The calf thymus ctDNA was additionally sonicated and filtered through a […] filter. The polynucleotide concentration was spectroscopically determined as the concentration of nucleobases.
(§2) All UV–Vis absorbance measurements were conducted on a Perkin Elmer Lambda 25 spectrophotometer (Perkin Elmer, Waltham, MA). A quartz cell with a 1 cm path length was used for all absorbance studies. Compound stock solutions were 1 mM. The DNA/RNA at increasing ratios was then titrated into the compound buffer solution (1.48 × 10^−5 mol dm^−3) and the corresponding absorption spectra were recorded under the same conditions. All data were graphed and analysed using Origin software version 9.0 (OriginLab Corporation, Northampton, MA). The stability constants (Ks) and [bound compound]/[polynucleotide phosphate] ratios (n) were calculated according to the Scatchard Equation[63] ^, [64]. Values for Ks and n given in Table 1 all have satisfying correlation coefficients (0.99).
(§3) The binding constants logKs and the density of the binding sites n were calculated using Scatchard plot analysis. In addition, the binding constants Ks for compounds 8b and 8e were calculated only for titration data taken at the r ≥ 0.1, because below that ratio changes in absorption maxima were too small for accurate calculation (ΔA ≤ 0.04) (Table 1). The binding constants Ks and ratios n obtained by processing UV–Vis titration data using the Scatchard equation are summarised in Table 1.

polyA-polyU [1] = test: UV–Vis titration with polyA-polyU (Scatchard); assay type: binding; conditions: PBS, pH 7; for Hypochromic effect H/%, polyA-polyU: UV–Vis titration, calculated by Scatchard equation; for log Ks, polyA-polyU: binding constant, Scatchard
Procedure: as §1, §2, §3

polyC-polyG = test: UV–Vis titration with polyC-polyG (Scatchard); assay type: binding; conditions: PBS, pH 7; for Hypochromic effect H/%, polyC-polyG: UV–Vis titration, calculated by Scatchard equation; for log Ks, polyC-polyG: binding constant, Scatchard
Procedure: as §1, §2, §3

ctDNA = test: Thermal melting (ΔTm) of ctDNA; assay type: binding, calf; conditions: PBS, pH 7; for ΔTm, ctDNA, r = 0.3: r = [compound]/[polynucleotide] 0.3, error ±0.5 °C
Procedure: (§4) T m experiments were conducted with a Perkin Elmer Lambda 25 spectrophotometer in 1 cm quartz cuvettes. The absorbance of the DNA/RNA-compound complex was monitored at 260 nm as a function of temperature. The absorbance of the ligands was subtracted from every curve, and the absorbance scale was normalised. The ΔT m values were calculated by subtracting T m of the free nucleic acid from T m of the complex. Every reported ΔT m value was the average of at least two measurements. The error of ΔT m is ±0.5 °C. All data were graphed and analysed using Origin software version 9.0.
(§5) Denaturation experiments were carried out at different amounts of the compounds (r = 0.1, 0.3, 0.5, and 0.7 eq; r = [compound]/[polynucleotide]) with ctDNA and polyA-polyU.

polyA-polyU [2] = test: Thermal melting (ΔTm) of polyA-polyU; assay type: binding; conditions: for ΔTm, polyA-polyU, r = 0.1: PBS, pH 7; for ΔTm, polyA-polyU, r = 0.3 / ΔTm, polyA-polyU, r = 0.5: first melting midpoint; for ΔTm, polyA-polyU, r = 0.3, second melting midpoint / ΔTm, polyA-polyU, r = 0.5, second melting midpoint: footnote c: biphasic melting curve
Procedure: as §4, §5

S. aureus MRSA = test: Broth microdilution MIC, MRSA clinical strain; assay type: cell-based; conditions: Staphylococcus aureus, antibiotic-resistant clinical strain
Procedure: (§6) The compounds were evaluated for their in vitro anti-bacterial activity against Gram-positive bacteria: S. aureus (ATCC 25923), MRSA, methicillin-sensitive S. aureus (MSSA), E. faecalis, vancomycin-resistant E. faecium (VREF), and Gram-negative bacteria: E. coli (ATCC 25925), P. aeruginosa (ATCC 27853), A. baumannii (ATCC 19606) and ESBL-producing K. pneumoniae (ATCC 27736). Standard broth microdilution method as recommended in guidelines of Clinical and Laboratory Standards Institute[61] ^, [65] ^, [66] was applied and the minimum inhibitory concentration (MIC) of compounds was tested. In short, testing was performed in U-bottomed 96-well sterile plastic microdilution trays (Falcon 3077, Becton Dickinson Labware, Franklin Lakes, NJ) in cation (Ca^2+ and Mg^2+) adjusted Mueller–Hinton broth medium (Becton Dickinson and Co., Cockeysville, MD). All testings were performed in triplicate.

S. aureus MSSA = test: Broth microdilution MIC, MSSA clinical strain; assay type: cell-based; conditions: Staphylococcus aureus
Procedure: as §6

E. faecium VRE = test: Broth microdilution MIC, VRE clinical strain; assay type: cell-based; conditions: Enterococcus faecium
Procedure: as §6

E. coli ESBL = test: Broth microdilution MIC, ESBL E. coli clinical strain; assay type: cell-based; conditions: Escherichia coli
K. pneumoniae ESBL = test: Broth microdilution MIC, ESBL K. pneumoniae clinical strain; assay type: cell-based; conditions: Klebsiella pneumoniae
Procedure: as §6

P. aeruginosa ESBL = test: Broth microdilution MIC, ESBL P. aeruginosa clinical strain; assay type: cell-based; conditions: Pseudomonas aeruginosa
S. aureus ATCC 25923 = test: Broth microdilution MIC, S. aureus ATCC 25923; assay type: cell-based; conditions: Staphylococcus aureus, ATCC25923; Table S2
Procedure: as §6
(§7) The in vitro anti-bacterial activity of 5-amidinobenzimidazoles 7a–7e, 8a–8e, and 9a–9e was tested against Gram-positive bacteria including S. aureus (ATCC 25923), Enterococcus faecalis (ATCC 29212), and Gram-negative bacteria including E. coli (ATCC 25925), K. pneumoniae (ATCC 700803), P. aeruginosa (ATCC 27853), and Acinetobacter baumannii (ATCC 19606).

E. faecalis ATCC 29212 = test: Broth microdilution MIC, E. faecalis ATCC 29212; assay type: cell-based; conditions: Enterococcus faecalis, ATCC29212; Table S2
Procedure: as §6, §7

E. coli ATCC 25925 = test: Broth microdilution MIC, E. coli ATCC 25925; assay type: cell-based; conditions: Escherichia coli, ATCC25925; Table S2
Procedure: as §6, §7

K. pneumonia ATCC 700803 = test: Broth microdilution MIC, K. pneumoniae ATCC 700803; assay type: cell-based; conditions: Klebsiella pneumoniae, ATCC700803; Table S2
Procedure: as §6, §7

P. aeruginosa ATCC 27853 = test: Broth microdilution MIC, P. aeruginosa ATCC 27853; assay type: cell-based; conditions: Pseudomonas aeruginosa, ATCC27853; Table S2
Procedure: as §6, §7

A. baumannii ATCC 19606 = test: Broth microdilution MIC, A. baumannii ATCC 19606; assay type: cell-based; conditions: Acinetobacter baumannii, ATCC19606; Table S2
Procedure: as §6, §7

[3] = tested on: bloodstream form T. brucei (strain 221); test: Anti-trypanosomal screening, resazurin; assay type: cell-based; conditions: Trypanosoma brucei, mean of triplicate ± SEM
Procedure: Bloodstream form T. brucei (strain 221) were cultured in modified Iscove’s medium, as outlined[67] and trypanocidal assays were performed using 96-well microtitre plates. […] Resazurin was added after 48 h, the plates incubated for a further 16 h, and then read in a Spectramax plate reader (Molecular Devices Corporation, San Jose, CA). The data were analysed using GraphPad Prism (GraphPad, La Jolla, CA). Each drug concentration was tested in triplicate.

[4] = tested on: polyA-polyU (RNA, polymer) A/U; test: UV melting at 260 nm; conditions: PBS, I = 0.05 M, cations not specified, pH 7, r = 0.3 [compound]/[polynucleotide]
[5] = tested on: polyA-polyU (RNA, polymer) A/U; test: UV-Vis titration, Scatchard; conditions: PBS, I = 0.05 M (Table 1 says I = 0.015 M), cations not specified, I = 0.015 M (Methods: 0.05 M), pH 7, per base
[6] = tested on: polyG-polyC (polyC-polyG) (RNA, polymer) G/C; test: UV-Vis titration, Scatchard; conditions: PBS, I = 0.05 M (Table 1 says I = 0.015 M), cations not specified, I = 0.015 M (Methods: 0.05 M)

SMILES | Hypochromic effect H/%, ctDNA (calf thymus ctDNA) [%] | log Ks, ctDNA (calf thymus ctDNA) | Hypochromic effect H/%, polyA-polyU (polyA-polyU [1]) [%] | log Ks, polyA-polyU (polyA-polyU [1]) | log Ks, polyC-polyG (polyC-polyG) | ΔTm, ctDNA, r = 0.5 (ctDNA) [°C] | ΔTm, ctDNA, r = 0.7 (ctDNA) [°C] | ΔTm, ctDNA, r = 0.3 (ctDNA) [°C] | ΔTm, polyA-polyU, r = 0.1 (polyA-polyU [2]) [°C] | ΔTm, polyA-polyU, r = 0.3 (polyA-polyU [2]) [°C] | MIC (S. aureus MRSA) [µg/mL] | MIC (S. aureus MSSA) [µg/mL] | MIC (E. faecium VRE) [µg/mL] | MIC (E. coli ESBL) [µg/mL] | MIC (K. pneumoniae ESBL) [µg/mL] | MIC (P. aeruginosa ESBL) [µg/mL] | MIC (S. aureus ATCC 25923) [µg/mL] | MIC (E. faecalis ATCC 29212) [µg/mL] | MIC (E. coli ATCC 25925) [µg/mL] | MIC (P. aeruginosa ATCC 27853) [µg/mL] | further results
Cl.Cl.N=C(N)c1ccc2[nH]c(-c3ccc(OCc4cn(CSc5ccccc5)nn4)cc3)nc2c1 [Compound 7e, 2–(4-((1-((Phenylthio)methyl)-1H-1,2,3-triazol-4-yl)methoxy)phenyl)-1H-benz[d]imidazole-5-carboximidamide dihydrochloride] | 38.2 | 5.33 | 31.7 | 6.20 | 5.89 | 2.62 | 2.66 | 2.19 | 0.39 | 1.11 | 32 | 128 | 64 | 32 | 16 | 32 | 32 | 128 | 32 | 64 | Hypochromic effect H/%, polyC-polyG (polyC-polyG): 5.79%; ΔTm, polyA-polyU, r = 0.3, second melting midpoint (polyA-polyU [2]): 12.58^c °C; ΔTm, polyA-polyU, r = 0.5 (polyA-polyU [2]): 1.11 °C; ΔTm, polyA-polyU, r = 0.5, second melting midpoint (polyA-polyU [2]): 15.04^c °C; MIC (K. pneumonia ATCC 700803): 128 µg/mL; MIC (A. baumannii ATCC 19606): > 256 µg/mL; IC50 [3]: 10.2 ± 1.3 µM; IC90 [3]: 15.9 ± 0.4 µM; melting point: 173 to 176 °C; ΔTm ([4]; error ±0.5, biphasic, second midpoint 12.58, per base): 1.11 °C; log Ks [5]: 6.20; log Ks ([6]; pH 7, per base): 5.89
N=C(N)c1ccc2[nH]c(-c3ccc(OCc4cn(Cc5ccccc5)nn4)cc3)nc2c1 [Compound 7d] | 40.4 | 5.78 | 32.5 | 5.94 | 6.56 | 3.86 | 3.62 | 3.12 | 2.06 | 1.14 | 16 (≈ 37.8 µM) | 32 (≈ 75.6 µM) | 32 (≈ 75.6 µM) | 16 (≈ 37.8 µM) | 16 (≈ 37.8 µM) | 32 (≈ 75.6 µM) | 32 (≈ 75.6 µM) | 64 (≈ 151 µM) | 32 (≈ 75.6 µM) | 32 (≈ 75.6 µM) | MIC (K. pneumonia ATCC 700803): 64 µg/mL (≈ 151 µM); MIC (A. baumannii ATCC 19606): > 256 µg/mL; IC50 [3]: 12.9 ± 0.2 µM; IC90 [3]: 18.2 ± 1 µM; ΔTm ([4]; error ±0.5, per base): 1.14 °C; log Ks [5]: 5.94; log Ks ([6]; pH 7, per base): 6.56
N=C(N)c1ccc2[nH]c(-c3ccc(OCc4cn(-c5ccccc5)nn4)cc3)nc2c1 [Compound 7a] | 7.8 | 6.76 | 19.3 | 5.24 | 6.44 | 4.84 | 4.69 | 2.46 | 1.74 | 1.74 | 16 (≈ 39.1 µM) | 32 (≈ 78.2 µM) | 32 (≈ 78.2 µM) | 4 (≈ 9.77 µM) | 8 (≈ 19.5 µM) | 128 (≈ 313 µM) | 32 (≈ 78.2 µM) | 64 (≈ 156 µM) | 32 (≈ 78.2 µM) | 128 (≈ 313 µM) | ΔTm, polyA-polyU, r = 0.5 (polyA-polyU [2]): 2.53 °C; MIC (K. pneumonia ATCC 700803): 128 µg/mL (≈ 313 µM); MIC (A. baumannii ATCC 19606): > 256 µg/mL; IC50 [3]: 8.6 ± 0.5 µM; IC90 [3]: 16.2 ± 0.9 µM; ΔTm ([4]; error ±0.5, per base): 1.74 °C; log Ks [5]: 5.24; log Ks ([6]; pH 7, n fixed, per base): 6.44
Cl.Cl.c1ccc(SCn2cc(COc3ccc(-c4nc5cc(C6=NCCN6)ccc5[nH]4)cc3)nn2)cc1 [Compound 9e, 5–(4,5-Dihydro-1H-imidazol-2-yl)-2–(4-((1-(phenylthiomethyl)-1H-1,2,3-triazol-4-yl)methoxy)phenyl)-1H-benz[d]imidazole dihydrochloride] | 41.1 | 6.21 | 31.6 | 5.36 | 4.29 | 3.47 | 3.60 | 2.87 | 1.11 | 0.47 | 64 | 64 | 32 | 64 | – | 64 | 32 | 128 | 64 | 128 | Hypochromic effect H/%, polyC-polyG (polyC-polyG): 5.21%; ΔTm, polyA-polyU, r = 0.3, second melting midpoint (polyA-polyU [2]): 12.46^c °C; ΔTm, polyA-polyU, r = 0.5 (polyA-polyU [2]): 0.47 °C; ΔTm, polyA-polyU, r = 0.5, second melting midpoint (polyA-polyU [2]): 13.89^c °C; MIC (K. pneumonia ATCC 700803): > 256 µg/mL; MIC (A. baumannii ATCC 19606): > 256 µg/mL; IC50 [3]: 9.7 ± 0.2 µM; IC90 [3]: 14 ± 0.3 µM; melting point: 162 to 164 °C; log Ks [5]: 5.36; log Ks ([6]; pH 7, n fixed, per base): 4.29
CC(C)(O/N=C(\C(=O)N[C@@H]1C(=O)N2C(C(=O)[O-])=C(C[n+]3ccccc3)CS[C@H]12)c1csc(N)n1)C(=O)O [Ceftazidime, ceftazidime, reference compound] | – | – | – | – | – | – | – | – | – | – | – | – | – | 8 (≈ 14.6 µM) | > 128 | 32 (≈ 58.5 µM) | – | – | 0.5 (≈ 0.915 µM) | 4 (≈ 7.32 µM) | –
